For one assay, the target named is T1, 15-PGDH in A549 cells (Homo sapiens, UniProt P15428).
T1 construct: endogenous in cells; host or cells: A549
T1 sequence (P15428 1-266): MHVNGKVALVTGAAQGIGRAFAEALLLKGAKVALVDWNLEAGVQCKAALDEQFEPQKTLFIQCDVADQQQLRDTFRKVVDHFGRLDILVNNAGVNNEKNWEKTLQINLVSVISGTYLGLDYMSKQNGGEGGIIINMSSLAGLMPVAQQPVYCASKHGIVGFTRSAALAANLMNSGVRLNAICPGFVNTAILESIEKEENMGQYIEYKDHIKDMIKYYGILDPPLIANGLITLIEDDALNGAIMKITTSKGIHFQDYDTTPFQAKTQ
The assay can be described thus: A549 cellular 15-PGDH assay (PGE2 accumulation, HTRF). It counts as cell-based. Particulars: interleukin-stimulated, inhibitor 24 hrs, PGE2 by competitive HTRF, read-out: A549 Cell Assay IC50. The source says: This assay was used for the quantification of IL-13 induced Native Prostaglandin E2 (PGE2) produced by A549 cells (epithelial cells from lung carcinoma) in cell culture supernatants. […] PGE2 was detected in a competitive HTRF assay by using anti PGE2 antibody labeled with Europium cryptate, and PGE2 labeled with […]. The PGE2 present in the sample competes with the binding between the two HTRF detection solutions (reagents) and thereby prevents FRET from occurring. The specific signal is inversely proportional to the PGE2 concentration. From this binding data, IC50 values were calculated.
In general terms: TR-FRET usually uses a lanthanide donor and a delayed reading to cut background.

The target of assay [1] is T2, human recombinant 15-PGDH (Homo sapiens, UniProt P15428).
T2 sequence (P15428 1-266): T1 sequence (P15428 1-266)
The assay can be described thus: Recombinant 15-PGDH enzymatic inhibition assay (PGDH-Lumi, NADH signal). In kind it is biochemical. The settings on record: recombinant 15-PGDH; 15 min pre-incubation, 60 min reaction with PGE2 and NAD+, NADH signal. A digest of the protocol:
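Recombinant 15-PGDH pre-incubated 15 min at room temperature with compound (22 concentrations, 2-fold dilutions) in 50 mM Tris pH 7.5, 0.01% Tween-20, […].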

For `Cn1nnc2cc(-c3ccc4cc([C@H](O)C5CC(F)(F)C5)sc4n3)cnc21` [Compound B82R, (R)-(3,3-difluorocyclobutyl)(6-(3-methyl-3H-[1,2,3]triazolo[4,5-b]pyridin-6-yl)thieno[2,3-b]pyridin-2-yl)methanol], the IC50 at 15-PGDH in A549 cells was 0.0124 nM; in assay [1], 0.398 nM.
For `CC(C)n1cc2cc(-c3ccc4cc([C@H](O)C5CC(F)(F)C5)sc4n3)ccc2n1` (single isomer, unassigned) [Compound B56R], in that order: 2.47 nM and 0.603 nM.
For `O[C@@H](c1cc2ccc(-c3ccc4oncc4c3)nc2s1)C1CCOCC1` (single isomer, unassigned) [Compound B43R], in that order: 196 nM and 13.8 nM.
For the molecule `Cn1cc2cc(-c3ccc4cc([C@@H](O)[C@@H]5CC5(F)F)sc4n3)cnc2n1` (single isomer, unassigned) [Compound B85SS], the IC50 on 15-PGDH in A549 cells is 2.83 nM; in assay [1] it was 3.32 nM.
For `Cn1cc2cc(-c3ncc4cc([C@]5(O)C[C@]6(CC6(F)F)C5)sc4n3)cnc2n1` (single isomer, unassigned) [Compound C114C, cis-1,1-difluoro-5-(2-(2-methyl-2H-pyrazolo[3,4-b]pyridin-5-yl)thieno[2,3-d]pyrimidin-6-yl)spiro[2.3]hexan-5-ol], in that order: 0.821 nM and 0.323 nM.
On the same counts, the results for `Cn1cc2cc(-c3ccc4cc([C@]5(O)C[C@@H](OC(F)(F)F)C5)sc4n3)cnc2n1` [Compound C67C, cis-1-(6-(2-methyl-2H-pyrazolo[3,4-b]pyridin-5-yl)thieno[2,3-b]pyridin-2-yl)-3-(trifluoromethoxy)cyclobutanol] are 0.0187 nM and 0.534 nM.
On the same counts, the results for `CC(O)c1cc2c(-c3ccnn3C)cc(-c3cnc4nn(C)cc4c3)nc2s1` (stereo not shown) [Compound B6, 1-(4-(1-methyl-1H-pyrazol-5-yl)-6-(2-methyl-2H-pyrazolo[3,4-b]pyridin-5-yl)thieno[2,3-b]pyridin-2-yl)ethan-1-ol] are 39.4 nM and 2.93 nM.
For the molecule `[2H][C@](O)(c1cc2ccc(-c3cnc4nn(C)cc4c3)nc2s1)C1CC(F)(F)C1` (single isomer, unassigned) [Compound B79R], the values for the IC50 (on 15-PGDH in A549 cells; in assay [1]) were 0.0094 nM and 0.399 nM, respectively.
For `CO[C@]1(C)C[C@](O)(c2cc3ccc(-c4cnc5nn(C)cc5c4)nc3s2)C1` (single isomer, unassigned) [Compound C59T, trans-3-methoxy-3-methyl-1-(6-(2-methyl-2H-pyrazolo[3,4-b]pyridin-5-yl)thieno[2,3-b]pyridin-2-yl)cyclobutanol], in that order: 0.16 nM and 0.727 nM.
For `Cn1cc2cc(-c3ccc4cc([C@@H](O)[C@H]5CCC5(F)F)sc4n3)cnc2n1` (single isomer, unassigned) [Compound B94SR], in that order: 2.64 nM and 0.64 nM.
On the same counts, the results for `Cn1cc2cc(-c3cnc4sc([C@H](O)C5CC(F)(F)C5)cc4c3)cnc2n1` (single isomer, unassigned) [Compound B77R] are 1.29 nM and 4.93 nM.
Turning to `CO[C@]1(C)C[C@@](O)(c2cc3ccc(-c4cnc5c(c4)nnn5C)nc3s2)C1` (single isomer, unassigned) [Compound C102C, cis-3-methoxy-3-methyl-1-(6-(3-methyl-3H-[1,2,3]triazolo[4,5-b]pyridin-6-yl)thieno[2,3-b]pyridin-2-yl)cyclobutanol], the IC50 on 15-PGDH in A549 cells is 2.53 nM; in assay [1], 0.971 nM.
For `CO[C@]1(C)C[C@](O)(c2cc3cnc(-c4cnc5nn(C)cc5c4)nc3s2)C1` (single isomer, unassigned) [Compound C118T], in that order: 2.73 nM and 0.864 nM.
On the same counts, the results for `Cn1cc2cc(-c3ccc4cc([C@H](O)C5COC5)sc4n3)cnc2n1` (single isomer, unassigned) [Compound B28R] are 0.16 nM and 0.424 nM.

For orientation: IC50 means the concentration at which inhibition is half-maximal.

These data come from US20240409557A1, “5,6-FUSED AND 6,6-FUSED BICYCLIC ALCOHOLS AND ETHERS AND COMPOSITIONS FOR USE AS 15-PROSTAGLANDIN DEHYDROGENASE MODULATORS” (AMGEN INC., priority 2023, published 2024).
